Measured values published in PubChem BioAssay (NCI).
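Exposure lasted 48 hours, with cells grown in 96-well plates and compounds tested at five concentrations. TGI is the concentration that stops growth completely.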

How the values were obtained:
Experiment in all cases: inhibition of tumour cell growth, NCI panel, 48 h
786-0 renal = system: 786-0 renal
A498 renal = system: A498 renal
A549 NSCLC = system: A549 NSCLC
ACHN renal = system: ACHN renal
CAKI-1 renal = system: CAKI-1 renal
COLO 205 colon = system: COLO 205 colon
DLD-1 colon = system: DLD-1 colon
DMS 114 small cell lung = system: DMS 114 small cell lung
DMS 273 small cell lung = system: DMS 273 small cell lung
EKVX NSCLC = system: EKVX NSCLC
HCC-2998 colon = system: HCC-2998 colon
HCT-116 colon = system: HCT-116 colon
HCT-15 colon = system: HCT-15 colon
HOP-18 NSCLC = system: HOP-18 NSCLC
HOP-62 NSCLC = system: HOP-62 NSCLC
HT29 colon = system: HT29 colon
IGROV1 ovarian = system: IGROV1 ovarian
KM12 colon = system: KM12 colon
KM20L2 colon = system: KM20L2 colon
LOX IMVI melanoma = system: LOX IMVI melanoma
LXFL 529 NSCLC = system: LXFL 529 NSCLC
M14 melanoma = system: M14 melanoma
M19-MEL melanoma = system: M19-MEL melanoma
MALME-3M melanoma = system: MALME-3M melanoma
MOLT-4 leukemia = system: MOLT-4 leukemia
NCI-H226 lung = system: NCI-H226 lung
NCI-H23 lung = system: NCI-H23 lung
NCI-H460 lung = system: NCI-H460 lung
NCI-H522 lung = system: NCI-H522 lung
OVCAR-3 ovarian = system: OVCAR-3 ovarian
OVCAR-4 ovarian = system: OVCAR-4 ovarian
OVCAR-5 ovarian = system: OVCAR-5 ovarian
OVCAR-8 ovarian = system: OVCAR-8 ovarian
RXF 393 renal = system: RXF 393 renal
SF-268 CNS = system: SF-268 CNS
SF-295 CNS = system: SF-295 CNS
SF-539 CNS = system: SF-539 CNS
SK-MEL-2 melanoma = system: SK-MEL-2 melanoma
SK-MEL-28 melanoma = system: SK-MEL-28 melanoma
SK-OV-3 ovarian = system: SK-OV-3 ovarian
SN12C renal = system: SN12C renal
SNB-19 CNS = system: SNB-19 CNS
SNB-75 CNS = system: SNB-75 CNS
SNB-78 CNS = system: SNB-78 CNS
SR leukemia = system: SR leukemia
SW-620 colon = system: SW-620 colon
TK-10 renal = system: TK-10 renal
U251 CNS = system: U251 CNS
UACC-257 melanoma = system: UACC-257 melanoma
UACC-62 melanoma = system: UACC-62 melanoma
UO-31 renal = system: UO-31 renal
CCRF-CEM leukemia = system: CCRF-CEM leukemia
HL-60(TB) leukemia = system: HL-60(TB) leukemia
HOP-92 NSCLC = system: HOP-92 NSCLC
K-562 leukemia = system: K-562 leukemia
RPMI-8226 leukemia = system: RPMI-8226 leukemia
SK-MEL-5 melanoma = system: SK-MEL-5 melanoma
XF 498 CNS = system: XF 498 CNS
BT-549 breast = system: BT-549 breast
DU-145 prostate = system: DU-145 prostate
HS 578T breast = system: HS 578T breast
MCF7 breast = system: MCF7 breast
MDA-MB-231 breast = system: MDA-MB-231 breast
MDA-MB-435 = system: MDA-MB-435
MDA-N = system: MDA-N
NCI/ADR-RES ovarian = system: NCI/ADR-RES ovarian
PC-3 prostate = system: PC-3 prostate
T-47D breast = system: T-47D breast

CC12O[Te]34OC1(C)C(C)(O3)C2(C)O4
TGI (786-0 renal): 29.3 µM | TGI (A498 renal): > 8.75 µM | TGI (A549 NSCLC): 25.1 µM | TGI (ACHN renal): 27 µM | TGI (CAKI-1 renal): 22.6 µM | TGI (COLO 205 colon): 31.1 µM | TGI (DLD-1 colon): 30.4 µM | TGI (DMS 114 small cell lung): 25.7 µM | TGI (DMS 273 small cell lung): 37.7 µM | TGI (EKVX NSCLC): 62.6 µM | TGI (HCC-2998 colon): 14.1 µM | TGI (HCT-116 colon): 23.2 µM | TGI (HCT-15 colon): 54 µM | TGI (HOP-18 NSCLC): 32 µM | TGI (HOP-62 NSCLC): 36.8 µM | TGI (HT29 colon): 30.3 µM | TGI (IGROV1 ovarian): 24.9 µM | TGI (KM12 colon): 27.4 µM | TGI (KM20L2 colon): 87.5 µM | TGI (LOX IMVI melanoma): 16.4 µM | TGI (LXFL 529 NSCLC): 26.7 µM | TGI (M14 melanoma): 33.7 µM | TGI (M19-MEL melanoma): 25.5 µM | TGI (MALME-3M melanoma): 32.7 µM | TGI (MOLT-4 leukemia): 34.6 µM | TGI (NCI-H226 lung): 44.6 µM | TGI (NCI-H23 lung): 34.8 µM | TGI (NCI-H460 lung): 61.3 µM | TGI (NCI-H522 lung): 23.6 µM | TGI (OVCAR-3 ovarian): 30.4 µM | TGI (OVCAR-4 ovarian): 27.4 µM | TGI (OVCAR-5 ovarian): 23.7 µM | TGI (OVCAR-8 ovarian): 24.4 µM | TGI (RXF 393 renal): 27 µM | TGI (SF-268 CNS): 23.9 µM | TGI (SF-295 CNS): 18.3 µM | TGI (SF-539 CNS): 28.2 µM | TGI (SK-MEL-2 melanoma): 29.8 µM | TGI (SK-MEL-28 melanoma): 23.3 µM | TGI (SK-OV-3 ovarian): 36.3 µM | TGI (SN12C renal): 23 µM | TGI (SNB-19 CNS): 37.5 µM | TGI (SNB-75 CNS): > 8.75 µM | TGI (SNB-78 CNS): 65.9 µM | TGI (SR leukemia): 34 µM | TGI (SW-620 colon): 32.6 µM | TGI (TK-10 renal): 29.4 µM | TGI (U251 CNS): 15.2 µM | TGI (UACC-257 melanoma): 33.6 µM | TGI (UACC-62 melanoma): 87.5 µM | TGI (UO-31 renal): 23.5 µM

Cc1ccc(N2C(=O)/C(=C3\Sc4c(nc(C)n(C)c4=O)N3c3ccccc3)SC2=S)cc1
TGI (786-0 renal): > 100 µM | TGI (A498 renal): 69 µM | TGI (A549 NSCLC): > 100 µM | TGI (ACHN renal): > 100 µM | TGI (CAKI-1 renal): > 100 µM | TGI (CCRF-CEM leukemia): > 100 µM | TGI (COLO 205 colon): > 100 µM | TGI (DMS 114 small cell lung): 95.1 µM | TGI (DMS 273 small cell lung): > 100 µM | TGI (EKVX NSCLC): > 100 µM | TGI (HCC-2998 colon): > 100 µM | TGI (HCT-116 colon): > 100 µM | TGI (HCT-15 colon): > 100 µM | TGI (HL-60(TB) leukemia): > 100 µM | TGI (HOP-92 NSCLC): > 100 µM | TGI (HT29 colon): > 100 µM | TGI (IGROV1 ovarian): > 100 µM | TGI (K-562 leukemia): > 100 µM | TGI (KM12 colon): > 100 µM | TGI (KM20L2 colon): > 100 µM | TGI (LOX IMVI melanoma): > 100 µM | TGI (LXFL 529 NSCLC): > 100 µM | TGI (M14 melanoma): > 100 µM | TGI (M19-MEL melanoma): > 100 µM | TGI (MOLT-4 leukemia): > 100 µM | TGI (NCI-H226 lung): 64.6 µM | TGI (NCI-H23 lung): > 100 µM | TGI (NCI-H460 lung): 44 µM | TGI (NCI-H522 lung): > 100 µM | TGI (OVCAR-4 ovarian): > 100 µM | TGI (OVCAR-5 ovarian): > 100 µM | TGI (OVCAR-8 ovarian): 91.3 µM | TGI (RPMI-8226 leukemia): > 100 µM | TGI (RXF 393 renal): 53.9 µM | TGI (SF-268 CNS): > 100 µM | TGI (SF-295 CNS): > 100 µM | TGI (SF-539 CNS): 33.7 µM | TGI (SK-MEL-2 melanoma): > 100 µM | TGI (SK-MEL-28 melanoma): > 100 µM | TGI (SK-MEL-5 melanoma): > 100 µM | TGI (SK-OV-3 ovarian): > 100 µM | TGI (SN12C renal): > 100 µM | TGI (SNB-19 CNS): > 100 µM | TGI (SNB-75 CNS): 79.4 µM | TGI (SNB-78 CNS): > 100 µM | TGI (SR leukemia): > 100 µM | TGI (SW-620 colon): > 100 µM | TGI (TK-10 renal): > 100 µM | TGI (U251 CNS): > 100 µM | TGI (UACC-257 melanoma): > 100 µM | TGI (UACC-62 melanoma): > 100 µM | TGI (UO-31 renal): > 100 µM | TGI (XF 498 CNS): > 100 µM

Cc1nc2ccccc2n1Cc1ccc(NC(=S)Nc2ccccc2)cc1
TGI (786-0 renal): > 100 µM | TGI (A498 renal): > 100 µM | TGI (A549 NSCLC): > 100 µM | TGI (ACHN renal): > 100 µM | TGI (BT-549 breast): > 100 µM | TGI (CAKI-1 renal): > 100 µM | TGI (CCRF-CEM leukemia): > 100 µM | TGI (COLO 205 colon): > 100 µM | TGI (DU-145 prostate): > 100 µM | TGI (EKVX NSCLC): > 100 µM | TGI (HCC-2998 colon): > 100 µM | TGI (HCT-116 colon): > 100 µM | TGI (HCT-15 colon): > 100 µM | TGI (HL-60(TB) leukemia): > 100 µM | TGI (HOP-62 NSCLC): > 100 µM | TGI (HOP-92 NSCLC): > 100 µM | TGI (HS 578T breast): > 100 µM | TGI (HT29 colon): > 100 µM | TGI (IGROV1 ovarian): > 100 µM | TGI (K-562 leukemia): > 100 µM | TGI (KM12 colon): > 100 µM | TGI (LOX IMVI melanoma): > 100 µM | TGI (M14 melanoma): > 100 µM | TGI (MALME-3M melanoma): > 100 µM | TGI (MCF7 breast): > 100 µM | TGI (MDA-MB-231 breast): > 100 µM | TGI (MDA-MB-435): > 100 µM | TGI (MDA-N): > 100 µM | TGI (MOLT-4 leukemia): > 100 µM | TGI (NCI-H226 lung): > 100 µM | TGI (NCI-H23 lung): > 100 µM | TGI (NCI-H460 lung): > 100 µM | TGI (NCI-H522 lung): > 100 µM | TGI (NCI/ADR-RES ovarian): > 100 µM | TGI (OVCAR-3 ovarian): > 100 µM | TGI (OVCAR-4 ovarian): > 100 µM | TGI (OVCAR-5 ovarian): > 100 µM | TGI (OVCAR-8 ovarian): > 100 µM | TGI (PC-3 prostate): > 100 µM | TGI (RPMI-8226 leukemia): > 100 µM | TGI (RXF 393 renal): > 100 µM | TGI (SF-268 CNS): > 100 µM | TGI (SF-295 CNS): > 100 µM | TGI (SF-539 CNS): > 100 µM | TGI (SK-MEL-2 melanoma): > 100 µM | TGI (SK-MEL-28 melanoma): > 100 µM | TGI (SK-MEL-5 melanoma): 56.6 µM | TGI (SK-OV-3 ovarian): > 100 µM | TGI (SN12C renal): > 100 µM | TGI (SNB-19 CNS): > 100 µM | TGI (SNB-75 CNS): > 100 µM | TGI (SR leukemia): > 100 µM | TGI (SW-620 colon): > 100 µM | TGI (T-47D breast): > 100 µM | TGI (TK-10 renal): > 100 µM | TGI (U251 CNS): > 100 µM | TGI (UACC-257 melanoma): > 100 µM | TGI (UACC-62 melanoma): > 100 µM | TGI (UO-31 renal): > 100 µM
